Assay results as given in patent US20220387383A1 (University of South Africa, priority 2019, published 2022).
Entries after “also recorded” stand apart in the source; their conditions may differ. Like-named read-outs stand apart in the source and are kept apart here.

Assays:
[1] = literature, in words, cited from earlier work
[2] = cited from earlier work
[3] = system: PANC-1 pancreatic cancer cells; assay: MTT assay for cell viability, PANC-1 pancreatic cancer cells; assay type: cell-based; settings: Homo sapiens; PANC-1, MTT, 48 hours
Protocol: (§1) The A375 human malignant melanoma cells, PANC-1 pancreatic cancer cells and HEK293 human embryonic kidney cells were cultured in media containing 89% DMEM, 10% FBS and 1% penicillin-streptomycin. Once confluent, the cells were washed thrice with 1×PBS and detached from T75 flasks by incubating the cells with 2 mL trypsin-EDTA for 5-10 minutes at 37° C. 2 mL DMEM was added to the cells to stop the reaction of trypsin-EDTA. […] The intensity of this colour is proportional to the state of metabolic activity in the cells and therefore the extent of cell viability. MTT is therefore used to measure the extent to which the drugs are toxic. PANC-1 pancreatic cancer, A375 malignant melanoma and HEK293 human embryonic kidney cell lines were cultured to confluence in CytoOne T75 vented cell culture flasks (USA Scientific). The cells were counted using a haemocytometer and passaged/plated into CytoOne 96 well plates (USA Scientific). […] Absorbance readings were measured at 570 nm using a 96 well plate reader. The percentage of viable cells in treated and untreated cultures was calculated and compared. […] The cell viability data was expressed as the mean±standard deviation (SD) from three independent experiments. The IC50 values were calculated using the non-linear regression test which briefly involves conversion of the ezetimibe concentrations to log values. […]

[4] = literature, in words, cited from earlier work; remark: listed apart in the source
[5] = system: A375 human malignant melanoma cells; assay: MTT assay for cell viability, A375 malignant melanoma cells; assay type: cell-based; settings: for IC50: A375, MTT, 48 hours, nonlinear regression, read-out: IC50, growth inhibition of melanoma cell line
Protocol: The A375 human malignant melanoma cells, PANC-1 pancreatic cancer cells and HEK293 human embryonic kidney cells were cultured in media containing 89% DMEM, 10% FBS and 1% penicillin-streptomycin. Once confluent, the cells were washed thrice with 1×PBS and detached from T75 flasks by incubating the cells with 2 mL trypsin-EDTA for 5-10 minutes at 37° C. 2 mL DMEM was added to the cells to stop the reaction of trypsin-EDTA. […] The intensity of this colour is proportional to the state of metabolic activity in the cells and therefore the extent of cell viability. MTT is therefore used to measure the extent to which the drugs are toxic. PANC-1 pancreatic cancer, A375 malignant melanoma and HEK293 human embryonic kidney cell lines were cultured to confluence in CytoOne T75 vented cell culture flasks (USA Scientific). The cells were counted using a haemocytometer and passaged/plated into CytoOne 96 well plates (USA Scientific). Approximately 5 000 cells per 200 μl were plated. The plates were incubated overnight to allow for attachment. The medium was removed after overnight incubation. […] After incubation for 48 hours, 20 μL of MTT reagent was added and incubated for 4 hours. Approximately 200 μL of the solubilisation reagent was added to each well and incubated overnight. The MTT assay was performed using the cell proliferation kit I (MTT) (Roche, Switzerland) by following the instructions in the manual. Absorbance readings were measured at 570 nm using a 96 well plate reader. The percentage of viable cells in treated and untreated cultures was calculated and compared. All statistical analyses were performed using Prism GraphPad Software (San Diego, Calif. 92108, USA). The cell viability data was expressed as the mean±standard deviation (SD) from three independent experiments. The IC50 values were calculated using the non-linear regression test which briefly involves conversion of the ezetimibe concentrations to log values. The log values were matched with their corresponding cell viability percentages. The one sample T-test and Wilcoxon Signed Rank Test were used to determine the statistical difference between the cell viability percentage in treated cells.

[6] = system: HEK293 human embryonic kidney cells; assay: MTT assay for cell viability, HEK293 normal embryonic kidney cells; assay type: cell-based; settings: 0.1-200 μM, 48 hours
Protocol: as §1

cholesterol absorption = settings: reported experiments with the initial drug lead; cited from earlier work
Mdm2 = Mdm2 (Homo sapiens, UniProt Q00987); settings: Warner et al. 2012; cited from earlier work
[7] = ezetimibe and/or the glucuronide metabolite

Sequence of Mdm2 (Q00987 whole entry): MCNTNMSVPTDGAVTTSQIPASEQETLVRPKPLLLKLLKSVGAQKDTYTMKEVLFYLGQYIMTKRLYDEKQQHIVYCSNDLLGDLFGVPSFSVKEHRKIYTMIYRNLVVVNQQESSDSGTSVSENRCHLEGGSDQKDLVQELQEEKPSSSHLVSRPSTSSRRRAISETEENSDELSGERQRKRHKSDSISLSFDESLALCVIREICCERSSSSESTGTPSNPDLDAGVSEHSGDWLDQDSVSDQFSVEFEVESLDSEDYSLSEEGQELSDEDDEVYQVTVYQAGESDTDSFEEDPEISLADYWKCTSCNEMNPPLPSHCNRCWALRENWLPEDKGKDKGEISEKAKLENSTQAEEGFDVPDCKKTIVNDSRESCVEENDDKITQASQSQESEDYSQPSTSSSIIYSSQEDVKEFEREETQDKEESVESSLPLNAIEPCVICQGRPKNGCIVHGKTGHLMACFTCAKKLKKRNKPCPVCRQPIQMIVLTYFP

For `COc1cc(/C=C/C(=O)CC(=O)/C=C/c2ccc(O)c(OC)c2)ccc1O` [Curcumin], the Bioavailability [1] is listed as “Poor” and the Bioavailability ([1]; listed as curcumin) is listed as “poor bioavailability; also recorded: low bioavailability”.
For `O=C1[C@H](CC[C@H](O)c2ccc(F)cc2)[C@@H](c2ccc(O)cc2)N1c1ccc(F)cc1` [Ezetimibe], the “Fraction metabolised in the intestine to the glucuronide metabolite” value ([2]; by UGT 1A1, 1A3 and 2B15) is listed as “Up to 80%”, the “Excreted in the faeces” value [2, 7] is listed as 90% and the Excreted in urine [2, 7] is listed as 10%. For the same molecule, the IC50 [3] was 71.6 µM, the “Aqueous Solubility” value [4] was “Poor” and the “Aqueous Solubility” value ([4]; listed as ezetimibe) was “highly insoluble”. The Bioavailability [1] was “poor bioavailability; also recorded: Almost negligible”, the Bioavailability ([1]; listed as ezetimibe) was “low bioavailability” and the IC50 [5] was 30.7 µM. It also gave an IC50 ([5]; Homo sapiens, A-375, 48 h) of 30.7 µM, an inhibition at 200 µM ([5]; Homo sapiens, A-375, A375, highest concentration, 200 μM, read-out: Inhibition of the melanoma cell line) of over 80% and an inhibition at 1 µM ([5]; Homo sapiens, A-375, A375, lowest concentration tested, 1 μM, read-out: Inhibition of the melanoma cell line) of about 20%. The “Concentrations toxic to cancer cells” value ([5]; cancer cells (A375 and PANC-1), MTT) was 20 to 80 µM and the “Toxicity to normal human embryonic kidney cell line” value [6] was “non-toxic; also recorded: does not exhibit toxicity”.
In the case of `COc1ccc([C@@H]2[C@@H](CCCc3ccccc3)C(=O)N2c2ccc(OC)cc2)cc1` [SCH48461], the “Inhibition of cholesterol absorption” value (cholesterol absorption) is listed as 70%.
For `COc1ccc(C2=NC(c3ccc(Cl)cc3)C(c3ccc(Cl)cc3)N2C(=O)N2CCNC(=O)C2)c(OC(C)C)c1` (stereo not shown) [nutlin-3a, 4-(4,5-bis(4-chlorophenyl)-2-(2-isopropoxy-4-methoxyphenyl)-4,5-dihydro-1H-imidazole-1-carbonyl) piperazin-2-one], the “Estimated free energy of binding, kcal/mol (Patch Dock)” value (Mdm2) is listed as −7.7+/−0.6 kcal/mol (Warner et al. 2012) and the Bioavailability [1] is listed as “poor bioavailability”.
